Tests used:
[1] = biological target: T1, Indoleamine 2,3-dioxygenase 1 (Homo sapiens, UniProt P14902); experiment: Inhibition of human recombinant IDO expressed in Escherichia coli using N-formylkynurenine as substrate incubated for 1 hr prior to NaOH addition measured after 4 hrs by spectrophotometry
[2] = biological target: T1, Indoleamine 2,3-dioxygenase 1; experiment: Inhibition of IDO in human HeLa cells after 24 hrs by spectrophotometry; assay type: cell-based

T1 sequence (P14902 whole entry): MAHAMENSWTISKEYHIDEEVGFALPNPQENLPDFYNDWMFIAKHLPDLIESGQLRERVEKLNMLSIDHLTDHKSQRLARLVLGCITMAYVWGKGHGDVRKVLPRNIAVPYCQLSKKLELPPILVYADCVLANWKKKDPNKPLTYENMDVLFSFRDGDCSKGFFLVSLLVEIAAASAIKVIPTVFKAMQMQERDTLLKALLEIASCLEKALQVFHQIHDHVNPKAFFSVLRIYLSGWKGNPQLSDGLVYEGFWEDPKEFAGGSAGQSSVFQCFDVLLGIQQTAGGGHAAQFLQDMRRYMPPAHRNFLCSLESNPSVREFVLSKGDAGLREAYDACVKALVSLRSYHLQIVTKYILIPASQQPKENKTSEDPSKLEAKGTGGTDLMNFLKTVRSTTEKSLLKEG

An IC50 [1] of 0.049 µM and an EC50 [2] of 0.241 µM were found for `CC(=O)Nc1ccc(S(=O)(=O)NNc2cccc(C)c2)cc1` in this work.

An IC50 [1] of 0.167 µM and an EC50 [2] of over 10 µM were found for `O=S(=O)(CCc1ccccc1)NNc1ccccc1` in this work.

An IC50 [1] of 0.08 µM and an EC50 [2] of 0.271 µM were found for `Cc1cccc(NNS(=O)(=O)c2ccc(C(=O)NCC(=O)O)cc2)c1` in this work.

An IC50 [1] of 0.043 µM and an EC50 [2] of 7.85 µM were found for `Cc1cccc(NNS(=O)(=O)c2ccc(S(C)(=O)=O)cc2)c1` in this work.

An IC50 [1] of 0.059 µM and an EC50 [2] of 3.4 µM were found for `Cc1cccc(NNS(=O)(=O)c2ccc(C#N)cc2)c1` in this work.

An IC50 [1] of 0.059 µM and an EC50 [2] of 0.296 µM were found for `Cc1cccc(NNS(=O)(=O)c2ccc(Oc3ccc(C(F)(F)F)cn3)cc2)c1` in this work.

An IC50 [1] of 0.071 µM and an EC50 [2] of over 10 µM were found for `CC(=O)Nc1ccc(S(=O)(=O)NNc2ccccc2)cc1` in this work.

An IC50 [1] of 0.051 µM and an EC50 [2] of 1.17 µM were found for `CC(=O)Nc1ccc(S(=O)(=O)NNc2ccc(C)cc2)cc1` in this work.

An IC50 [1] of 0.254 µM and an EC50 [2] of over 10 µM were found for `COc1ccc(NNS(=O)(=O)c2ccc(NC(C)=O)cc2)cc1` in this work.

An IC50 [1] of 5.67 µM and an EC50 [2] of 1.39 µM were found for `CC(=O)Nc1ccc(S(=O)(=O)NNc2ccc(C#N)cc2)cc1` in this work.

An IC50 [1] of 2.48 µM and an EC50 [2] of 3.12 µM were found for `CC(=O)Nc1ccc(S(=O)(=O)NNc2ccc(S(N)(=O)=O)cc2)cc1` in this work.

An IC50 [1] of 1.61 µM and an EC50 [2] of 0.181 µM were found for `CC(=O)Nc1ccc(S(=O)(=O)NNc2ccc(C(F)(F)F)cc2)cc1` in this work.

An IC50 [1] of 0.079 µM and an EC50 [2] of 0.609 µM were found for `CC(=O)Nc1ccc(S(=O)(=O)NNc2ccc(F)cc2)cc1` in this work.

An IC50 [1] of 0.155 µM and an EC50 [2] of 0.142 µM were found for `CC(=O)Nc1ccc(S(=O)(=O)NNc2ccc(Cl)cc2)cc1` in this work.

An IC50 [1] of 0.13 µM and an EC50 [2] of 0.085 µM were found for `CC(=O)Nc1ccc(S(=O)(=O)NNc2ccc(Br)cc2)cc1` in this work.

An IC50 [1] of 0.122 µM and an EC50 [2] of over 10 µM were found for `CC(=O)Nc1ccc(S(=O)(=O)NNc2cccc(F)c2)cc1` in this work.

An IC50 [1] of 0.255 µM and an EC50 [2] of 7.56 µM were found for `CC(=O)Nc1ccc(S(=O)(=O)NNc2cccc(Br)c2)cc1` in this work.

An IC50 [1] of 0.128 µM and an EC50 [2] of 2.49 µM were found for `CC(=O)Nc1ccc(S(=O)(=O)NNc2ccc(F)c(Br)c2)cc1` in this work.

An IC50 [1] of 0.11 µM and an EC50 [2] of 2.59 µM were found for `CC(=O)Nc1ccc(S(=O)(=O)NNc2ccc(F)c(Cl)c2)cc1` in this work.

An IC50 [1] of 0.205 µM and an EC50 [2] of 0.187 µM were found for `CC(=O)Nc1ccc(S(=O)(=O)NNc2ccc(Br)c(F)c2)cc1` in this work.

An IC50 [1] of 0.058 µM and an EC50 [2] of 0.13 µM were found for `CC(=O)Nc1ccc(S(=O)(=O)NNc2ccc(Br)c(C)c2)cc1` in this work.

An IC50 [1] of 0.194 µM and an EC50 [2] of 0.084 µM were found for `CC(=O)Nc1ccc(S(=O)(=O)NNc2ccc(Cl)c(F)c2)cc1` in this work.

An IC50 [1] of 1.75 µM and an EC50 [2] of 2.23 µM were found for `CC(=O)Nc1ccc(S(=O)(=O)NNc2cc(F)cc(F)c2)cc1` in this work.

An IC50 [1] of 0.608 µM and an EC50 [2] of over 10 µM were found for `CC(=O)Nc1ccc(S(=O)(=O)NNc2ccc(F)cc2F)cc1` in this work.

An IC50 [1] of 0.247 µM and an EC50 [2] of 0.35 µM were found for `CC(=O)Nc1ccc(S(=O)(=O)NNc2ccc(Cl)c(Cl)c2)cc1` in this work.

An IC50 [1] of 0.352 µM and an EC50 [2] of 0.508 µM were found for `CC(=O)Nc1ccc(S(=O)(=O)NNc2cc(Cl)cc(Cl)c2)cc1` in this work.

An IC50 [1] of 0.172 µM and an EC50 [2] of 0.128 µM were found for `O=S(=O)(NNc1ccc(Br)cc1)c1ccccc1` in this work.

An IC50 [1] of 0.085 µM and an EC50 [2] of 0.374 µM were found for `O=S(=O)(NNc1ccc(Br)cc1)c1ccc(Br)cc1` in this work.

An IC50 [1] of 1.43 µM and an EC50 [2] of 0.64 µM were found for `COc1ccc(S(=O)(=O)NNc2ccc(Br)cc2)cc1` in this work.

An IC50 [1] of 0.176 µM and an EC50 [2] of 0.134 µM were found for `N#Cc1ccc(S(=O)(=O)NNc2ccc(Br)cc2)cc1` in this work.

An IC50 [1] of 0.121 µM and an EC50 [2] of 0.465 µM were found for `COC(=O)CCc1ccc(S(=O)(=O)NNc2ccc(Br)cc2)cc1` in this work.

An IC50 [1] of 0.132 µM and an EC50 [2] of 0.187 µM were found for `CCCC(=O)Nc1ccc(S(=O)(=O)NNc2ccc(Br)cc2)cc1` in this work.

An IC50 [1] of 0.141 µM and an EC50 [2] of 0.183 µM were found for `O=C(O)CCc1ccc(S(=O)(=O)NNc2ccc(Br)cc2)cc1` in this work.

An IC50 [1] of 0.125 µM and an EC50 [2] of 0.152 µM were found for `O=C(O)COc1ccc(S(=O)(=O)NNc2ccc(Br)cc2)cc1` in this work.

An IC50 [1] of 0.061 µM and an EC50 [2] of 0.172 µM were found for `O=C(O)c1ccc(S(=O)(=O)NNc2ccc(Br)cc2)cc1` in this work.

An IC50 [1] of 4.05 µM was found for `CC(=O)Nc1ccc(S(=O)(=O)NN(C)c2ccc(Br)cc2)cc1` in this work.
